The results in this text go back to patent US20150065447A1, “SURVIVAL BENEFIT IN PATIENTS WITH SOLID TUMORS WITH ELEVATED C-REACTIVE PROTEIN LEVELS” (Incyte Corporation, priority 2013, published 2015).

For experiment [1], the target named is T1, human JAK2 (a.a. 828-1132) (Homo sapiens, UniProt O60674).
T1 construct: JAK2 (a.a. 828-1132); His tag (N); made in house; host or cells: insect cells (baculovirus)
Nature of the experiment: In vitro JAK Kinase Assay (HTRF), JAK2 (for JAK2/JAK1 ratio). Format: biochemical. To be noted: ratio of IC50s, 1 mM ATP. On the procedure:
(§1) The catalytic activity of JAK1 and JAK2 was assayed by measuring the phosphorylation of a biotinylated peptide. The phosphorylated peptide was detected by homogenous time resolved fluorescence (HTRF). […] Reactions were carried out at room temperature for 1 hr and then stopped with 20 μL 45 mM EDTA, 300 nM SA-APC, 6 nM Eu-Py20 in assay buffer (Perkin Elmer, Boston, Mass.). Binding to the Europium labeled antibody took place for 40 minutes and HTRF signal was measured on a Fusion plate reader (Perkin Elmer, Boston, Mass.).
On the technique in general: In TR-FRET formats the signal depends on donor and acceptor labels being close together.

Experiment [2] addresses T2, human JAK1 (a.a. 837-1142) (Homo sapiens, UniProt P23458).
T2 construct: human JAK1 (a.a. 837-1142); His tag (N); made in house; host or cells: insect cells (baculovirus)
Nature of the experiment: In vitro JAK Kinase Assay (HTRF), JAK1. Format: biochemical. The settings on record: 1 mM ATP. On the procedure: as §1

T1 sequence (O60674 828-1132): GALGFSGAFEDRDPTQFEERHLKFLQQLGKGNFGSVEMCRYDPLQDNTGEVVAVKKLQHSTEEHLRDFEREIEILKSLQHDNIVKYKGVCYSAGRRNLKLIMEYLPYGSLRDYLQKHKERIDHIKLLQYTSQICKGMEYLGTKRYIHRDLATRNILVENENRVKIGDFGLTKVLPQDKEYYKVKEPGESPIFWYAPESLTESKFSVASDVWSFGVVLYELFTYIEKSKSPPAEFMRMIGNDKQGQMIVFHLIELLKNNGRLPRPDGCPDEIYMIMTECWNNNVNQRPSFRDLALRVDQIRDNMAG
T2 sequence (P23458 849-1154): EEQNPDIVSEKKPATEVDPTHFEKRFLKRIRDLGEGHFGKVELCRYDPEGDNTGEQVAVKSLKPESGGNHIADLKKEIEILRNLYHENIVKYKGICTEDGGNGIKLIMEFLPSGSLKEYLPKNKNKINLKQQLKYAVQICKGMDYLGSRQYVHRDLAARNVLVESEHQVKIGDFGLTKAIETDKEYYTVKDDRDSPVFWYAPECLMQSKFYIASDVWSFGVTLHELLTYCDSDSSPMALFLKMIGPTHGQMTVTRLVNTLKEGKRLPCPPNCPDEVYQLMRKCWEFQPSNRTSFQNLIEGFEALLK

By IC50 is commonly meant the concentration at which inhibition is half-maximal. Regarding `N#CC[C@]1(n2cc(-c3ncnc4[nH]ccc34)cn2)C[C@H](N2CCC(Oc3cc(CCO)cc(C(F)(F)F)n3)CC2)C1` [Compound 26, {trans-3-(4-{[4-(2-hydroxyethyl)-6-(trifluoromethyl)pyridin-2-yl]oxy}piperidin-1-yl)-1-[4-(7H-pyrrolo[2,3-d]pyrimidin-4-yl)-1H-pyrazol-1-yl]cyclobutyl}acetonitrile], the JAK2/JAK1 in experiment [1] is listed as over 10. Also, the IC50 in experiment [2] was under 10 nM.
For `N#CCC(CN1CCN(C(=O)c2ccc(C#N)cc2F)CC1)n1ccc(-c2ncnc3[nH]ccc23)c1` (stereo not drawn) [Compound 6, 4-[(4-{3-cyano-2-[3-(7H-pyrrolo[2,3-d]pyrimidin-4-yl)-1H-pyrrol-1-yl]propyl}piperazin-l-yl)carbonyl]-3-fluorobenzonitrile] the same measures were over 10 and under 10 nM.
For `N#CCC(C1CCN(c2nc3cccnc3o2)C1)n1cc(-c2ncnc3[nH]ccc23)cn1` (centres unmarked) [Compound 4, 3-(1-[1,3]oxazolo[5,4-b]pyridin-2-ylpyrrolidin-3-yl)-3-[4-(7H-pyrrolo[2,3-d]pyrimidin-4-yl)-1H-pyrazol-1-yl]propanenitrile] the same measures were over 10 and under 10 nM.
For `C[C@H](O)CNCc1cc(OC2CCN([C@H]3C[C@](CC#N)(n4cc(-c5ncnc6[nH]ccc56)cn4)C3)CC2)nc(C(F)(F)F)c1` [Compound 25, {trans-3-(4-{[4-({[(2S)-2-hydroxypropyl]amino}methyl)-6-(trifluoromethyl)pyridin-2-yl]oxy}piperidin-1-yl)-1-[4-(7H-pyrrolo[2,3-d]pyrimidin-4-yl)-1H-pyrazol-1-yl]cyclobutyl}acetonitrile] the same measures were over 10 and under 10 nM.
On to `C[C@H](NC(=O)c1cc(F)c(N2CC(CC#N)(n3cc(-c4ncnc5[nH]ccc45)cn3)C2)cc1F)C(F)(F)F` [Compound 16, 4-{3-(cyanomethyl)-3-[4-(7H-pyrrolo[2,3-d]pyrimidin-4-yl)-1H-pyrazol-1-yl]azetidin-1-yl}-2,5-difluoro-N-[(1S)-2,2,2-trifluoro-1-methylethyl]benzamide], for which, in experiment [1], the JAK2/JAK1 was over 10. For the same compound, the IC50 in experiment [2] was under 10 nM.
`N#CC[C@]1(n2cc(-c3ncnc4[nH]ccc34)cn2)C[C@H](N2CCC(Oc3cc(CN4CCC[C@H]4CO)cc(C(F)(F)F)n3)CC2)C1` [Compound 12, {trans-3-(4-{[4-{[(2S)-2-(hydroxymethyl)pyrrolidin-1-yl]methyl}-6-(trifluoromethyl)pyridin-2-yl]oxy}piperidin-1-yl)-1-[4-(7H-pyrrolo[2,3-d]pyrimidin-4-yl)-1H-pyrazol-1-yl]cyclobutyl}acetonitrile]: in experiment [1], the JAK2/JAK1 is over 10. The compound also came in with an IC50 in experiment [2] of under 10 nM.
Turning to `N#CCC(C1CCN(c2cccc(Cl)n2)C1)n1cc(-c2ncnc3[nH]ccc23)cn1` (single isomer, unassigned) [Compound 3, 3-[1-(6-chloropyridin-2-yl)pyrrolidin-3-yl]-3-[4-(7H-pyrrolo[2,3-d]pyrimidin-4-yl)-1H-pyrazol-1-yl]propanenitrile], the JAK2/JAK1 in experiment [1] was over 10. In addition, in experiment [2], the IC50 was under 10 nM.
For `C[C@@H](O)CNCc1cc(OC2CCN([C@H]3C[C@](CC#N)(n4cc(-c5ncnc6[nH]ccc56)cn4)C3)CC2)nc(C(F)(F)F)c1` [Compound 24, {trans-3-(4-{[4-({[(2R)-2-hydroxypropyl]amino}methyl)-6-(trifluoromethyl)pyridin-2-yl]oxy}piperidin-1-yl)-1-[4-(7H-pyrrolo[2,3-d]pyrimidin-4-yl)-1H-pyrazol-1-yl]cyclobutyl}acetonitrile] the same measures were over 10 and under 10 nM.
As for `N#CC[C@]1(n2cc(-c3ncnc4[nH]ccc34)cn2)C[C@H](N2CCN(C(=O)c3ccnc(C(F)(F)F)n3)CC2)C1` [Compound 10, [trans-1-[4-(7H-pyrrolo[2,3-d]pyrimidin-4-yl)-1H-pyrazol-1-yl]-3-(4-{[2-(trifluoromethyl)pyrimidin-4-yl]carbonyl}piperazin-1-yl)cyclobutyl]acetonitrile], in experiment [1], the JAK2/JAK1 is listed as over 10. The IC50 in experiment [2] is under 10 nM.
For `C[C@@H](CO)NCc1cc(OC2CCN([C@H]3C[C@](CC#N)(n4cc(-c5ncnc6[nH]ccc56)cn4)C3)CC2)nc(C(F)(F)F)c1` [Compound 23, {trans-3-(4-{[4-({[(1S)-2-hydroxy-1-methylethyl]amino}methyl)-6-(trifluoromethyl)pyridin-2-yl]oxy}piperidin-1-yl)-1-[4-(7H-pyrrolo[2,3-d]pyrimidin-4-yl)-1H-pyrazol-1-yl]cyclobutyl}acetonitrile] the same measures were over 10 and under 10 nM.
For `N#CCC1(n2cc(-c3ncnc4[nH]ccc34)cn2)CN(C2CCN(C(=O)c3ccnc(C(F)(F)F)n3)CC2)C1` [Compound 9, [3-[4-(7H-pyrrolo[2,3-d]pyrimidin-4-yl)-1H-pyrazol-1-yl]-1-(l-{[2-(trifluoromethyl)pyrimidin-4-yl]carbonyl}piperidin-4-yl)azetidin-3-yl]acetonitrile] the same measures were over 10 and under 10 nM.
For `C[C@@H](O)c1nc2cnc3ccsc3c2n1[C@H]1CC[C@H](CC#N)OC1` [Compound 1, ((2R,5S)-5-{2-[(1R)-1-hydroxyethyl]-1H-imidazo[4,5-d]thieno[3,2-b]pyridin-1-yl}tetrahydro-2H-pyran-2-yl)acetonitrile] the same measures were over 10 and under 100 nM.
`N#CC[C@]1(n2cc(-c3ncnc4[nH]ccc34)cn2)C[C@H](N2CCC(Oc3cc(CN4CC(O)C4)cc(C(F)(F)F)n3)CC2)C1` [Compound 11, {trans-3-(4-{[4-[(3-hydroxyazetidin-1-yl)methyl]-6-(trifluoromethyl)pyridin-2-yl]oxy}piperidin-1-yl)-1-[4-(7H-pyrrolo[2,3-d]pyrimidin-4-yl)-1H-pyrazol-1-yl]cyclobutyl}acetonitrile]: the JAK2/JAK1 in experiment [1] is over 10. Also, the half-maximal inhibitory concentration (IC50) in experiment [2] is under 10 nM.
